# Where two headings read alike, the source gives them in different places.
# Test system: surface-bound mouse prions (RML)
# Conditions: for Incubation time s.d. / Sick/total: Table 4, infectious wires treated: sodium hydroxide 1M 1 h, formaldehyde 10% 1 h, guanidinium thiocyanate 4M 16 h, 25° C.; for Infectivity of treated prion-coated wires: sodium hydroxide 1 M 1 h, guanidinium thiocyanate 4 M 16 h, formaldehyde 10%
Structure (SMILES),Incubation time s.d. [days],Sick/total,Incubation time s.d. (listed as formaldehyde) [days],Infectivity of treated prion-coated wires
C=O [Formaldehyde],92 ± 8,6/6,92 ± 8,
N#CS.N=C(N)N [Guanidinium thiocyanate],>260,0/6,,completely non-infectious
[Na+].[OH-] [Sodium hydroxide],>260,0/6,,completely non-infectious
